The source of these data is PMC11393339, “Structure and mechanism of a phosphotransferase system glucose transporter” (Nature Communications, 2024).

The target in experiment [1] is T1, IICB^Glc (Escherichia coli, UniProt P69786).
T1 construct: gene ptsG; full-length wild type with decahistidine tag; overexpressed in E. coli BW25113 delta-arcB delta-ptsG; homodimer; purified in DDM (nanoDSF) or in MSP1E3D1/POPC nanodiscs (cryo-EM, IIB domain not resolved)
Put plainly: nanoDSF thermal shift (Tycho NT.[…]). Type of experiment: binding. The following applies: 10 mM ligand, 4 µM protein, 20 mM HEPES-NaOH pH 8.0, 150 mM NaCl, 5 mM β-ME, 0.02% DDM. (In general: Differential scanning fluorimetry follows unfolding on heating by fluorescence.)

Experiment [2] has as its target T1, IICB^Glc. Briefly: nanoDSF thermal shift (Tycho NT.[…]). Type of experiment: binding. The following applies: 10 mM ligand, 4 µM protein, 20 mM HEPES-NaOH pH 8.0, 150 mM NaCl, 5 mM β-ME, 0.02% DDM. This is another data set of the same source.

T1 sequence (P69786 whole entry, the tested form may be a part): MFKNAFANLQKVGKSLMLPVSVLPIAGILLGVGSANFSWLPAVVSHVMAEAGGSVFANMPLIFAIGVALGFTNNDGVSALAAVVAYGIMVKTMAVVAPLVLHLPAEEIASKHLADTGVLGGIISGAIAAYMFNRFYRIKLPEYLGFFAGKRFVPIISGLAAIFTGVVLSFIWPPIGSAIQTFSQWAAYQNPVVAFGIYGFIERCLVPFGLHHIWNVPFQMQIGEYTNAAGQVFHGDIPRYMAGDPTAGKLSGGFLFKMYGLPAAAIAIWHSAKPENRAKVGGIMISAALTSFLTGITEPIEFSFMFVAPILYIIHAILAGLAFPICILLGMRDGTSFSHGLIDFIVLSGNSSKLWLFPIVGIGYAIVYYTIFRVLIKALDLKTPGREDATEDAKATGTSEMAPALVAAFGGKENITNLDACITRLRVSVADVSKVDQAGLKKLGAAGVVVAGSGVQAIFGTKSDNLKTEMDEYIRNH

On to `COC1O[C@H](CO)[C@@H](O)[C@H](O)[C@H]1O` (stereo partly shown) [1-O-methyl-glucose], for which the ΔTi in experiment [1] was 1-deoxy-glucose and 1-O-methyl-glucose bound best.

Take `OC[C@H]1OC[C@H](O)[C@@H](O)[C@@H]1O` [1-deoxy-glucose]: the ΔTi in experiment [1] is 1-deoxy-glucose and 1-O-methyl-glucose bound best. On to `OC[C@H]1OC(O)[C@H](O)[C@@H](O)[C@@H]1O` (stereo partly drawn) [D-glucose], for which the ΔTi entry in experiment [2] was “~ almost 10 °C”. In the case of `OC[C@H]1O[C@H](O[C@H]2[C@H](O)[C@@H](O)C(O)O[C@@H]2CO)[C@H](O)[C@@H](O)[C@@H]1O` (stereo partly drawn) [D-maltose], the ΔTi entry in experiment [1] is recorded as “induced a slight stabilization of IICB^Glc”.
